In patent publication US8273762B2, “Hexahydro-pyrrolo-isoquinoline compounds” (Janssen Pharmaceutica NV, priority 2005, dated 2012):
pKi: −log10 of the molar value. Read-outs that look alike come from different tables or passages of the source.

What was measured:
[1] = target: T1, cloned human H3 receptor, stably expressed in SK-N-MC cells (Homo sapiens, UniProt Q9Y5N1); experiment: H3 receptor binding (N-[3H]-α-methylhistamine displacement); details: SK-N-MC membranes, 0.8 nM N-[3H]-α-methylhistamine
T1 construct: expressed in transfected cells
T1 sequence (Q9Y5N1 whole entry): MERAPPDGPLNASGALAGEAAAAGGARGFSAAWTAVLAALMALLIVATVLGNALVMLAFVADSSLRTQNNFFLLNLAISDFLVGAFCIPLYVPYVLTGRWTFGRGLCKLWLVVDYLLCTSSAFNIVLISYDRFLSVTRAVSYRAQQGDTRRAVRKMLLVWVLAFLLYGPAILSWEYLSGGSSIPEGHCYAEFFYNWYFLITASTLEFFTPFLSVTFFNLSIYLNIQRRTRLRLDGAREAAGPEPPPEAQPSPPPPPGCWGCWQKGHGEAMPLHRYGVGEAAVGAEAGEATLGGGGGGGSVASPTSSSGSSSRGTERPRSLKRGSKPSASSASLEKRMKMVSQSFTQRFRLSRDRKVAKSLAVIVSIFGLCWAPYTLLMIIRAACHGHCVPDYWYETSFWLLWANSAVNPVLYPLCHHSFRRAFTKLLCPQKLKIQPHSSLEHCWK

[2] = target: T2, human H3 receptor (SK-N-MC cells) (Homo sapiens, UniProt Q9Y5N1); experiment: Cyclic AMP accumulation (β-galactosidase reporter, Schild analysis vs histamine); format: cell-based
T2 construct: expressed in transfected cells; host or cells: SK-N-MC sublines with CRE-beta-galactosidase reporter
T2 sequence (Q9Y5N1 whole entry): as above

[3] = target: T3, human SERT (HEK293 membranes) (Homo sapiens, UniProt P31645); experiment: Human SERT binding (3H-citalopram displacement)
T3 construct: purchased Perkin-Elmer; host or cells: HEK293 membranes
T3 sequence (P31645 whole entry): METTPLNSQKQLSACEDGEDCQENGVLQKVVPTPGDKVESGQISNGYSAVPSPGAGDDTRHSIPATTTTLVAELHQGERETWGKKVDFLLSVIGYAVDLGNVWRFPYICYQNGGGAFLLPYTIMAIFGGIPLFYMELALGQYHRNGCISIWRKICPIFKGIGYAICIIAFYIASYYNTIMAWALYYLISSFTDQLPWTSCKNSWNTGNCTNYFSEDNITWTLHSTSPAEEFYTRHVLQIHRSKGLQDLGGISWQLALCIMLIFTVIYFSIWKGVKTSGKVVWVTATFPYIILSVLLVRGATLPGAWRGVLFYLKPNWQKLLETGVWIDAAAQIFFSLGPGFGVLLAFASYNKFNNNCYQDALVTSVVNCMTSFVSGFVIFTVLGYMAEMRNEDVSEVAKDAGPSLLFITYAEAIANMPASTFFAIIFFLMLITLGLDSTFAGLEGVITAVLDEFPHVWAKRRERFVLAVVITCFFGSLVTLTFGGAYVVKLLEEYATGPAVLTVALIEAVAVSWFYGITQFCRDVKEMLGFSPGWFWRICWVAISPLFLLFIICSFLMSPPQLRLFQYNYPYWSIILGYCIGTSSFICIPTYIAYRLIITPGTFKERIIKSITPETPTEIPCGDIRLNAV
Protocol: Nonspecific binding was determined in the presence of 10 μM fluoxetine for the SERT. The membranes were washed and the radioactivity was counted as above.

SMILES | pKi [1] | Kb ([2]; read-out: H3 pA2 (converted)) | pKi [3] | Kb [2]
Clc1ccccc1[C@H]1CN2CCC[C@H]2c2cc(OCCCN3CCCCC3)ccc21 (relative stereo) [Example 12B, Trans-6-(2-Chloro-phenyl)-9-(3-piperidin-1-yl-propoxy)-1,2,3,5,6,10b-hexahydro-pyrrolo[2,1-a]isoquinoline] | 9.00 | 0.631 nM |  | 
Fc1ccc([C@@H]2CN3CCC[C@H]3c3cc(OCCCN4CCCCC4)ccc32)cc1 (relative stereo) [Example 14A, Cis-6-(4-Fluoro-phenyl)-9-(3-piperidin-1-yl-propoxy)-1,2,3,5,6,10b-hexahydro-pyrrolo[2,1-a]isoquinoline] | 8.70 | 1 nM | 8.52 | 
COc1ccc([C@H]2CN3CCC[C@H]3c3cc(OCC4CCN(C(C)C)CC4)ccc32)cc1 (relative stereo) [Example 29] | 9.05 |  | 8.70 | 
CSc1ccc([C@H]2CN3CCC[C@H]3c3cc(OCCCN4CCCCC4)ccc32)cc1 (relative stereo) [Example 39A, Cis-6-(4-Methylsulfanyl-phenyl)-9-(3-piperidin-1-yl-propoxy)-1,2,3,5,6,10b-hexahydro-pyrrolo[2,1-a]isoquinoline] | 8.70 |  | 8.40 | 
CSc1ccc([C@@H]2CN3CCC[C@H]3c3ccc(C#CCCN4CCCCC4)cc32)cc1 (relative stereo) [Example 97A, Cis-6-(4-methylsulfanyl-phenyl)-8-(4-piperidin-1-yl-but-1-ynyl)-1,2,3,5,6,10b-hexahydro-pyrrolo[2,1-a]isoquinoline] | 8.52 | 1.58 nM | 5.70 | 
FC(F)(F)c1ccc([C@@H]2CN3CCC[C@H]3c3cc(OCCCN4CCCCC4)ccc32)cc1 (relative stereo) [Example 7B, Trans-9-(3-Piperidin-1-yl-propoxy)-6-(4-trifluoromethyl-phenyl)-1,2,3,5,6,10b-hexahydro-pyrrolo[2,1-a]isoquinoline] | 8.70 | 6.31 nM |  | 
COc1ccc([C@H]2CN3CCC[C@H]3c3cc(OCCCN4CCCCC4)ccc32)cc1OC (relative stereo) [Example 18] | 9.05 | 0.501 nM | 7.89 | 
Clc1ccccc1[C@@H]1CN2CCC[C@H]2c2cc(OCCCN3CCCCC3)ccc21 (relative stereo) [Example 12A, Cis-6-(2-Chloro-phenyl)-9-(3-piperidin-1-yl-propoxy)-1,2,3,5,6,10b-hexahydro-pyrrolo[2,1-a]isoquinoline] | 8.70 | 1.26 nM | 8.10 | 
COc1ccc(OC)c([C@H]2CN3CCC[C@H]3c3cc(OCCCN4CCCCC4)ccc32)c1 (relative stereo) [Example 20] | 9.00 | 1 nM | 7.37 | 
COc1ccc([C@H]2CN3CCC[C@H]3c3cc(OCCCN4CCCCC4)ccc32)c(OC)c1 (relative stereo) [Example 19] | 9.00 | 0.398 nM | 8.30 | 
c1ccc([C@H]2CN3CCC[C@H]3c3cc(OCCCN4CCCCC4)ccc32)nc1 (relative stereo) [Example 25] | 9.10 |  |  | 0.1 nM
Fc1ccc([C@H]2CN3CCC[C@H]3c3cc(OCCCN4CCCCC4)ccc32)cc1 (relative stereo) [Example 14B, Trans-6-(4-Fluoro-phenyl)-9-(3-piperidin-1-yl-propoxy)-1,2,3,5,6,10b-hexahydro-pyrrolo[2,1-a]isoquinoline] | 9.00 | 0.794 nM |  | 
COc1ccc([C@H]2CN3CCC[C@H]3c3cc(OCCCN4CCOCC4)ccc32)cc1 (relative stereo) [Example 38] |  |  | 8.15 | 
Cc1cccc([C@H]2CN3CCC[C@H]3c3cc(OCCCN4CCCCC4)ccc32)c1 (relative stereo) [Example 31] | 7.92 |  | 7.55 | 
CSc1ccc([C@H]2CN3CCC[C@H]3c3cc(C#CCCN4CCCCC4)ccc32)cc1 (relative stereo) [Example 98B, Trans-6-(4-methylsulfanyl-phenyl)-9-(4-piperidin-1-yl-but-1-ynyl)-1,2,3,5,6,10b-hexahydro-pyrrolo[2,1-a]isoquinoline] | 8.52 | 2.51 nM |  | 
Ic1ccc([C@H]2CN3CCC[C@H]3c3cc(OCCCN4CCCCC4)ccc32)cc1 (relative stereo) [Example 35B, Trans-6-(4-Iodo-phenyl)-9-(3-piperidin-1-yl-propoxy)-1,2,3,5,6,10b-hexahydro-pyrrolo[2,1-a]isoquinoline] | 8.70 | 3.16 nM |  | 
CSc1ccc([C@H]2CN3CCC[C@H]3c3ccc(C#CCCN4CCCCC4)cc32)cc1 (relative stereo) [Example 97B, Trans-6-(4-methylsulfanyl-phenyl)-8-(4-piperidin-1-yl-but-1-ynyl)-1,2,3,5,6,10b-hexahydro-pyrrolo[2,1-a]isoquinoline] | 7.92 | 10 nM |  | 
COc1ccccc1[C@H]1CN2CCC[C@H]2c2cc(OCCCN3CCCCC3)ccc21 (relative stereo) [Example 13A] |  |  | 7.68 | 
Clc1ccc([C@@H]2CN3CCC[C@H]3c3cc(OCCCN4CCCCC4)ccc32)cc1 (relative stereo) [Example 66A, Cis-6-(4-Chloro-phenyl)-9-(3-piperidin-1-yl-propoxy)-1,2,3,5,6,10b-hexahydro-pyrrolo[2,1-a]isoquinoline] | 8.70 |  | 8.22 | 
Brc1ccc([C@H]2CN3CCC[C@H]3c3cc(OCCCN4CCCCC4)ccc32)cc1 (relative stereo) [Example 40] | 8.52 |  | 7.74 | 
c1ccc([C@H]2CN3CCC[C@H]3c3ccc(OCCCN4CCCCC4)cc32)cc1 (relative stereo) [Example 45] | 7.80 |  |  | 
O=[N+]([O-])c1cccc([C@@H]2CN3CCC[C@H]3c3cc(OCCCN4CCCCC4)ccc32)c1 (relative stereo) [Example 4B, Trans-6-(3-Nitro-phenyl)-9-(3-piperidin-1-yl-propoxy)-1,2,3,5,6,10b-hexahydro-pyrrolo[2,1-a]isoquinoline] | 9.00 | 0.158 nM |  | 
COc1ccc([C@H]2CN3CCC[C@H]3c3cc(OCCCN4CCOCC4)ccc32)cc1F (relative stereo) [Example 65] | 8.40 |  |  | 
COc1ccc([C@H]2CN3CCC[C@H]3c3cc(OCCCN4CCC(F)CC4)ccc32)cc1 (relative stereo) [Example 47] | 8.52 |  | 8.30 | 
c1cc([C@H]2CN3CCC[C@H]3c3cc(OCCCN4CCCCC4)ccc32)ccn1 (relative stereo) [Example 27B, Trans-9-(3-Piperidin-1-yl-propoxy)-6-pyridin-4-yl-1,2,3,5,6,10b-hexahydro-pyrrolo[2,1-a]isoquinoline] | 9.52 |  |  | 
Oc1ccc([C@@H]2CN3CCC[C@H]3c3cc(OCCCN4CCOCC4)ccc32)cn1 (relative stereo) [Example 51A, Cis-5-[9-(3-Morpholin-4-yl-propoxy)-1,2,3,5,6,10b-hexahydro-pyrrolo[2,1-a]isoquinolin-6-yl]-pyridin-2-ol] | 8.52 |  |  | 
c1cncc([C@H]2CN3CCC[C@H]3c3cc(OCCCN4CCCCC4)ccc32)c1 (relative stereo) [Example 26] | 9.10 | 0.0794 nM |  | 
c1cnn(-c2ccc([C@H]3CN4CCC[C@H]4c4cc(OCCCN5CCOCC5)ccc43)cc2)c1 (relative stereo) [Example 49] | 8.30 |  |  | 
N#Cc1ccc([C@H]2CN3CCC[C@H]3c3ccc(OCCCN4CCCCC4)cc32)cc1 (relative stereo) [Example 43] | 7.52 |  |  | 
